# Results as given in paper PMC4734766, “Pentamidine Is Not a Permeant but a Nanomolar Inhibitor of the Trypanosoma brucei Aquaglyceroporin-2” (PLoS Pathogens, 2016).
# Read-outs that look alike come from different tables or passages of the source.
# Legend:
# [1] = molecular target: T1, TbAQP2 (Trypanosoma brucei brucei, UniProt Q6ZXT3); assay: cell-based
# T1 sequence (Q6ZXT3 1-312): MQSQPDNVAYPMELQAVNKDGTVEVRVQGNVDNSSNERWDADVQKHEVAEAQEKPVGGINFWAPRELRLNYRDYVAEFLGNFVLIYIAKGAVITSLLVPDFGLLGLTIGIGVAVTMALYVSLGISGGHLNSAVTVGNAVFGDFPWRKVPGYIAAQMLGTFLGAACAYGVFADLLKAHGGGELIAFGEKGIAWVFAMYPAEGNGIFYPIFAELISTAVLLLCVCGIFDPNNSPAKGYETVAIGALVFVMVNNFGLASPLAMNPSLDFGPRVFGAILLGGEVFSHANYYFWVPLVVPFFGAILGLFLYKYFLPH
# [2] = molecular target: T1, TbAQP2; details: not told, pH 7.2
# [3] = molecular target: T1, TbAQP2
# [4] = system: other AQPs; details: covalent cysteine-modification; cited from earlier work
# [5] = molecular target: T1, TbAQP2; details: pH 5.5
# [6] = molecular target: T2, TbAQP3 (Trypanosoma brucei brucei, UniProt Q6ZXT2)
# T2 sequence (Q6ZXT2 whole entry): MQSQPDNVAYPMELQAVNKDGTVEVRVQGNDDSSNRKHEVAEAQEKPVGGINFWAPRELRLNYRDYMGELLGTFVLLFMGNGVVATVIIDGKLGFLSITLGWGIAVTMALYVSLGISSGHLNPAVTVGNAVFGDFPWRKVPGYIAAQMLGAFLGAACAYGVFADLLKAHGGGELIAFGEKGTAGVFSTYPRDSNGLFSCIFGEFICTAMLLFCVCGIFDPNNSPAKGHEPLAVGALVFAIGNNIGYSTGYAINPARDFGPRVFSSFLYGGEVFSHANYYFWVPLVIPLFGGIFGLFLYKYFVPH
# [7] = system: yeast; assay: Phenotypic yeast growth assay, pentamidine susceptibility on YPG (glycerol) media; assay type: cell-based, Saccharomyces cerevisiae; details: pentamidine isethionate 1 or 10 μg ml–1, compared with non-expressing and TbAQP3 expressing cells
# [8] = assay type: physicochemical; details: prohibits a sufficiently concentrated gradient in the light-scattering assay
# From the text: Next, we employed a biophysical light-scattering assay for TbAQP2 permeability. We expressed TbAQP2 in a yeast strain that lacks the endogenous aquaglyceroporin (Δfps1), prepared protoplasts, and challenged them by a hypertonic, test solute-containing buffer. In an initial rapid phase, the protoplasts will release water following the outward osmotic gradient and shrink as indicated by an increase in light scattering. In the second slower phase, volume will be regained if the test solute can pass TbAQP2 and enter the protoplasts. […] We used instead two pairs of test solutes, glycerol/3-aminopropane-1,2-diol and urea/formamidine, of which glycerol and urea are established permeants of TbAQP2 [11], whereas the respective partners are bioisosteric nitrogen-derivatives, which are positively charged at neutral pH (Fig 1F). […] Formamidine is too strong a base (pKa 13) to be amenable to deprotonation in aqueous solution. […] The lack of permeability for the charged compounds is not due to molecule size, because formamidine is even smaller than urea. […] We conclude that organic cations fail to traverse the TbAQP2 channel.
# [9] = molecular target: T2, TbAQP3; details: up to 500 μM pentamidine added 10 min prior to the assay
# [10] = system: yeast; details: cited from earlier work
# [11] = cited from earlier work
# [12] = system: T. brucei expressing mutant TbAQP2 (GFPAQP2 L264R); assay: alamarBlue EC50 assay, aqp2-null strain expressing GFP-TbAQP2 Leu264Arg; details: Trypanosoma brucei
# Description: Bloodstream-form T. brucei, Lister 427, MiTat 1.2, clone 221a and derivatives were maintained as previously described [2]; 2T1 [1] and aqp2 null strains [2] were also described previously. Strains were transfected using a Nucleofector apparatus (Lonza) in conjunction with cytomix and transformants were selected with hygromycin (2.5 μg ml^–1). ^GFPAQP expression was induced by exposing cells to 1 μg ml^–1 tetracycline for 48 h. EC50 assays were carried out using alamarBlue as described [44, 45].
# [13] = IC50, inhibition of TbAQP2 glycerol permeability
structure (smiles),measurement,setting,value
CCCCCOc1ccc(C(=N)N)cc1 [4-pentoxy-benzamidine],IC50,[1]; [13],87 µM
NC(N)=O [urea],permeability of TbAQP2 for the solute,[2],showed permeability
CCCOc1ccc(C(=N)N)cc1 [4-propoxy-benzamidine],maximal inhibition of TbAQP2,[3],60%
same,IC50,[1]; [13],2800 µM
COc1ccc(C(=N)N)cc1 [4-methoxy-benzamidine],inhibition of TbAQP2 (in words),[3],incapable of inhibiting TbAQP2
N#Cc1ccc(OCCCCCOc2ccc(C(=N)N)cc2)cc1 [nitrile-pentamidine],IC50,[1]; [13],0.18 µM
[Cl][Au]([Cl])[Cl].c1cnc2c(c1)ccc1cccnc12 [auphen],IC50,[4],0.8 µM
"N [NH4 ^+, ammonium]",NH4+ uptake on TbAQP2 expression,[5],neither expression of TbAQP2 nor TbAQP3 enhanced the NH4 ^+ uptake
same,NH4+ uptake on TbAQP3 expression,"[6]; pH 5.5, NH4+ as sole nitrogen source, versus cells without ammonium transporter",neither expression of TbAQP2 nor TbAQP3 enhanced the NH4 ^+ uptake
CN [methylammonium],permeability of TbAQP2 for the positively charged compound form,[5]; not told,impermeable
same,permeability of TbAQP3 for the positively charged compound form,"[6]; 50 mM methylammonium, pH 5.5, yeast survival",impermeable
N=C(N)c1ccc(OCCCCCOc2ccc(C(=N)N)cc2)cc1 [pentamidine],pentamidine susceptibility of yeast on expression of TbAQP2,[7],did not increase the susceptibility
same,solubility,[8],low solubility
same,block of TbAQP2 glycerol permeability,[3]; not told,fully blocked
same,reduced affinity versus pH 7.2,[3]; pH 2.5,8 times
same,reduced affinity versus pH 7.2,[3]; pH 3.5,3 times
same,effect on glycerol permeability of TbAQP3,[9],unaffected
same,IC50,[1]; [13],0.13 µM
same,IC50,"[1]; IC50, pentamidine inhibition of TbAQP2, pH 2.5",1.1 µM
same,IC50,"[1]; IC50, pentamidine inhibition of TbAQP2, pH 3.5",0.45 µM
same,cytotoxicity to yeast,[10],cytotoxic
same,pKa,[11],12.1
same,EC50,[12],0.103 µM
"NCC(O)CO (stereo not shown) [3-aminopropane-1,2-diol]",permeability of TbAQP2 for the solute,[2],did not pass
same,pKa,[11],9.2
OCC(O)CO [glycerol],permeability of TbAQP2 for the solute,[2],showed permeability
N=CN [formamidine],permeability of TbAQP2 for the solute,[2],did not pass
same,pKa,[11],13
